Reference: PubChem BioAssay (NCI)
Values joined by “and” are separate entries in the source; they are usually repeats but may differ in a detail not shown here. Identical values can stand only once.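 Briefly, cells in 96-well plates were exposed to five compound concentrations for 48 h, and endpoints were estimated by linear interpolation. Here, GI50 denotes the concentration required for 50% inhibition of growth. TGI: concentration producing complete growth inhibition.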

test system: SN12K1 renal; test: NCI tumour cell line growth inhibition, 48 h

Row | Compound | TGI [µM]
1 | C=C1[C@@H](C)[C@H]2[C@H](Cc3ccccc3)NC(=O)[C@]23OC(=O)/C=C/[C@H](O)CCC[C@@H](C)C/C=C/[C@H]3[C@@H]1O | 41.1

test system: P388 leukemia; test: NCI tumour cell line growth inhibition, 48 h

Row | Compound | TGI [µM]
2 | C=C1[C@@H](C)[C@H]2[C@H](Cc3ccccc3)NC(=O)[C@]23OC(=O)/C=C/[C@H](O)CCC[C@@H](C)C/C=C/[C@H]3[C@@H]1O | > 87.1

test system: P388/ADR leukemia; test: NCI tumour cell line growth inhibition, 48 h

Row | Compound | TGI [µM]
3 | C=C1[C@@H](C)[C@H]2[C@H](Cc3ccccc3)NC(=O)[C@]23OC(=O)/C=C/[C@H](O)CCC[C@@H](C)C/C=C/[C@H]3[C@@H]1O | 73.4

test system: XF 498 CNS; test: NCI tumour cell line growth inhibition, 48 h

Row | Compound | TGI [µM] | GI50
4 | COC(=O)C1CC(C(=O)OC)c2nc3cc(C)ccc3nc21 (stereo not drawn) | > 100 | 
5 | COC(=O)C1=C(C)N(NC(N)=O)C2(N)N(NC(N)=O)C(C)=C(C(=O)OC)C12C(=O)OC (stereo not drawn) | > 100 | 
6 | CC(C)C(=O)/C=C/c1ccccc1 | > 100 | 
7 | COC(=O)C(CCS(=O)(=O)CC(=O)C(=O)Nc1cccc(C(C)=O)c1)C(=O)OC | > 100 | 
8 | C/C(O)=C(\N=O)C(=O)NCCc1ccccc1 | > 31.6 | 
9 | O=S(=O)([O-])c1cccc2cccc(N=Cc3ccccc3[O-])c12.O=S(=O)([O-])c1cccc2cccc(N=Cc3ccccc3[O-])c12.[O]=[U]=[O] | > 100 | > 100 µM
10 | Cc1cccc(C(C)(C)C)c1NC(=O)C(=O)C(C(=O)/C=C\c1ccccc1)C1OC(=O)c2ccccc21 (stereo not drawn) | > 100 | 
11 | CC(O)/C=C/C(CCC(C)CO)C(C)C (stereo not drawn) | > 100 | 
12 | O=C1C=C[C@@]23CC1C(O)C[C@H]2C=Cc1ccccc13 (stereo partly drawn) | > 100 | 
13 | CCOC(=O)CC(=O)Sc1ccccc1 | 93.4 | 
14 | N#CC(C(=O)/C(=N/N)C(C#N)c1ccc(Cl)cc1)c1ccc(Cl)cc1 (stereo not drawn) | > 100 | 
15 | CC(=O)OC1C(=O)C(O)C(C)OC1O[C@@H]1C[C@@]2(C)[C@@H]3CC=C4[C@@H](C[C@H](O)C(=O)C4(C)C)[C@]3(C)C(=O)C[C@]2(C)[C@H]1[C@@](C)(O)C(=O)/C=C/C(C)(C)O (stereo partly drawn) | 0.64 | 
16 | CCCN(CCCCC(NC(C)=O)C(=O)NCc1ccccc1)C(=O)NCCCl (stereo not drawn) | > 100 | 
17 | Cc1ccc(NC(=O)CC2C(=O)Nc3ccccc3S2=O)cc1C (stereo not drawn) | > 100 | 
18 | CC1OC(n2ncc(=O)[nH]c2=O)C=CC1=O (stereo not drawn) | > 100 | 54.8 µM and 22.9 µM
19 | COc1ccc(/C=N/N=C(\N)NO)cc1OC | > 100 | 
20 | CC(=O)CCCCCCCCCCCC[C@@H]1CC[C@H](C)[C@H](O)N1 | > 100 | 
21 | O=C1C(Cl)C(c2cccc(O)c2)N1n1cnc2ccccc2c1=O (stereo not drawn) | > 100 | 
22 | COc1ccc(C=C2C(=O)OC(C)(C)OC2=O)cc1OC | > 100 | 
23 | C=C1[C@@H](C)[C@H]2[C@H](Cc3ccccc3)NC(=O)[C@]23OC(=O)/C=C/[C@H](O)CCC[C@@H](C)C/C=C/[C@H]3[C@@H]1O | 8.97 | 
24 | CCN1C2=NC(=O)N(C)C(=O)C2(Cl)C(C(SC)S(=O)(=O)c2ccc(C)cc2)c2ccccc21 (stereo not drawn) | > 100 | 
25 | [Cl][Bi]([O]c1ccccn1)[O]c1ccccn1 | > 100 | > 100 µM
